The values that follow come from US9989533B2, “Anti-TNF induced apoptosis (ATIA) diagnostic markers and therapies” (The United States of America, as represented by the …, priority 2009, dated 2018).

Read-outs that look alike come from different tables or passages of the source.

For series [1], the system named is ATIA. Type of series: cell-based.
For series [2], the system named is ATIA. The series is described as follows: effect of cyclohexamide on ATIA stability, blot (FIG. 28 bottom). Type of series: cell-based, human. On the procedure:
(§1) FIG. 28 is two panels that show the effect of cyclohexamide on ATIA stability and cell apoptosis.
(§2) Experiments were performed with small chemical molecules to reduce ATIA levels in cancer cells. Examples of small molecules that can be used include, but are not limited to, cyclohexamide. […] Preferably, […] is administered locally to the tumor.

A further series deals with A172 cells. The series can be described thus: apoptosis (annexin positive cells) after cyclohexamide treatment under hypoxia (FIG. 28 top). Particulars: in the presence of CHX. Type of series: cell-based, human. Here is the method: as §1, §2
In the next series the test system is ATIA+/+ and ATIA−/− mice. Type of series: in vivo. As to conditions: GalN pretreatment, TNFα 2 μg/Kg intravenous, by 8 hr post-treatment. Here is the method:
(A) is a schematic diagram of ATIA knockout strategy. (B) and (C) show the generation of ATIA+/− ES cells (B) and ATIA+/− and ATIA−/− mice (C) was confirmed by PCR. […] Survival curves of wild-type (n=5) and ATIA KO (n=8) after TNF treatment. […] Tissue sections were analyzed by H&E (left panels) and TUNNEL (right panels) staining.
To determine whether ATIA is able to protect from TNF-induced apoptosis in vivo, a model of TNF-induced hepatitis (26, 27) was used. […] By 8 hr post-treatment, 20% of ATIA+/+ mice as compared to more than 85% of ATIA—mice were moribund (FIG. 5D). […] No other histological differences were noted. […] To further confirm this observation, we also examined TNF-induced apoptosis in ATIA−/− MEFs. Wild-type and ATIA−/− mouse embryonic fibroblast cell lines were established from 10.5-12.5 day old wild-type and ATIA knockout embryos. The cell lines were verified for the loss of ATIA by genomic PCR analysis and western blotting with the anti-ATIA antibody (data not shown). Cells were treated with TNF and varied doses of cyclohexamide (CHX) (FIG. 6A). […] Cell death induced by UV radiation or staurosporine is however, only moderately affected by the loss of ATIA (FIG. 6B).

The subject of series [3] is A172, U87MG and 251 glioblastoma cells. The series can be described thus: TRAIL-induced cell death in glioblastoma cells (FIG. 19). Type of series: cell-based. Particulars: ATIA-expressing human glioblastoma cells (A172) versus cells which do not express ATIA (U87MG); TRAIL 20 ng/ml, 24 h. An excerpt:
Next, the sensitivity of ATIA expressing cells to TRAIL-induced cell death was examined. FIG. 19, left panel, is a western blot showing the expression of ATIA in various glioblastoma cell types.

In the case of `[Cl-].[Cl-].[Co+2]` [CoCl2], the ATIA protein expression result in the series with ATIA [1] was “considerably increased”.

Consider `C[C@@H]1C[C@@H]([C@H](O)CC2CC(=O)NC(=O)C2)C(=O)[C@@H](C)C1` [cycloheximide], for which, in the series with ATIA [2] (0.5 ug, A172 Cells), the “effect on ATIA level” value was “causes the decrease of ATIA”. The “effect on ATIA levels” value in the series on ATIA [2] (low levels (e.g. 0.1 μg-1.0 μg), tumor cells) is “reduces ATIA levels”. Moreover, the apoptosis under hypoxia entry in the series with A172 cells was “undergo apoptosis”.

TNFα: the moribund mice with ATIA+/+ and ATIA−/− mice (ATIA+/+ mice) is 20%; in the series with ATIA+/+ and ATIA−/− mice (ATIA−/− mice), “more than 85%”.

B1: TRAIL: tumour necrosis factor-related apoptosis-inducing ligand (protein, UniProt P50591 1-281, looked up)
Tumor necrosis factor ligand …: MAMMEVQGGPSLGQTCVLIVIFTVLLQSLCVAVTYVYFTNELKQMQDKYSKSGIACFLKEDDSYWDPNDEESMNSPCWQVKWQLRQLVRKMILRTSEETISTVQEKQQNISPLVRERGPQRVAAHITGTRGRSNTLSSPNSKNEKALGRKINSWESSRSGHSFLSNLHLRNGELVIHEKGFYYIYSQTYFRFQEEIKENTKNDKQMVQYIYKYTSYPDPILLMKSARNSCWSKDAEYGLYSIYQGGIFELKENDRIFVSVTNEHLIDMDHEASFFGAFLVG
B1: in series [3], the “sensitivity to TRAIL-induced cell death” value was “much more sensitive to TRAIL-induced cell death”.
